Laboratory results as given in patent US9856210B2, “Pharmaceutical composition for prevention and treatment of amyotrophic lateral sclerosis” (Kyoto University, priority 2010, dated 2018).

Columns and labels:
[1] = test system: human SOD1 (hSOD1) mRNA; experiment: Human SOD1 mRNA in spinal cord of human SOD1 (G93A) transgenic mice (PCR); format: in vivo, mouse; settings: 60 mg/kg/day oral, 5 days a week for 4 weeks, vs solvent control; relative to β-actin (FIG. 4)
Protocol: (§1) To 8-week-old human SOD1 (G93A) transgenic mice (The Jackson Laboratory) were orally administered sorafenib (60 mg/kg/day) dissolved in 95% ethanol and Cremophol EL or solvent alone as a control, each to 3 mice, 5 days a week for 4 weeks. After administration, the spinal cord was removed. Total RNA was extracted and human and mouse SOD1 mRNA amounts were measured by PCR.

[2] = test system: SOD1; experiment: Western blotting of intracellular SOD1 in iPS cell-derived astrocytes; format: cell-based, human; settings: astrocytes from ALS patient iPS cells; 1 μM, 3 μM, 10 μM and 30 μM; 48 hours; β-actin internal standard (FIG. 3D)
Protocol: A 4-mm skin biopsy was cultured for 3 weeks, and the resulting cells in culture were used as the fibroblasts derived from an ALS patient.
Human cDNAs for KLF4, Sox2, Oct3/4 and c-Myc were transferred to the above-described fibroblasts using a retrovirus, as described by Takahashi K et al. in Cell 131(5), 861, 2007. On day 6 after the gene transfer, the fibroblasts were transferred onto SNL feeder cells. The following day, the medium was replaced with a primate ES cell culture broth supplemented with 4 ng/ml of bFGF (Wako). The medium was exchanged every two days; 30 days after the gene transfer, colonies were picked up.
Neurospheres were formed by a slightly modified version of the method described by Wada T et al. in PLoS ONE 4(8), e6722, 2009. […]
The iPS cell-derived astrocytes were seeded to a 6-well plate at a density of 250,000 cells/well. […] After the incubation, the amount expressed was detected by ECL (Enhanced ChemiLuminescence) using an HRP-linked anti-rabbit IgG antibody (1:5000; GE healthcare) and an HRP-linked anti-mouse IgG antibody (1:5000; GE healthcare).

[3] = test system: mouse SOD1 (mSOD1) mRNA; experiment: Mouse SOD1 mRNA in spinal cord of human SOD1 (G93A) transgenic mice (PCR); format: in vivo; settings: 60 mg/kg/day oral, 5 days a week for 4 weeks, vs solvent control; relative to β-actin (FIG. 4)
Protocol: as §1

CNC(=O)c1cc(Oc2ccc(NC(=O)Nc3ccc(Cl)c(C(F)(F)F)c3)cc2)ccn1 [sorafenib]
human SOD1 mRNA amount in spinal cord [1]: significantly decreased | expression of SOD1 (western blotting) [2]: a reduction in the expression of SOD1 was observed | mouse SOD1 mRNA amount in spinal cord [3]: significantly decreased
